Experimental data reported in patent US8563565B2, “Pyrazoloquinoline derivatives” (Eisai R&D Management Co., Ltd., priority 2011, dated 2013).
Read-outs that look alike come from different tables or passages of the source.

Assays:
[1] = molecular target: T1, human recombinant PDE9 protein (Homo sapiens, UniProt O76083); test: PDE9 inhibitory activity test (measurement of PDE9 inhibitory action, [3H]-cGMP); format: biochemical; settings: PDE9 IC50, human recombinant PDE9, 30° C., 10 min
T1 construct: His-tag (inferred from the Ni column purification; a myc His-tag vector is named only for the HEK293 expression check); made in house; host or cells: silkworm (pYNG vector, Katakura Industries)
From the text: 1) Preparation of a Human Recombinant PDE9 Protein
An hsPDE9A 1cDNA fragment was amplified by being based on a base sequence (Accession No.: AF048837) of the hsPDE9A1 registered on GenBank data base, and by using the following sequences (Hokkaido System Science Co., Ltd.) as a primer and Human hippocampus cDNA library (Clontech Laboratories, Inc.) as a template DNA, and using Pfu50 DNA polymerase (Invitrogen Corp.), and by a polymerase chain reaction (PCR) of the following condition.
The condition of PCR: [96° C., 5 min]×1 cycle, [(96° C., 10 sec), (57° C., 5 sec), (72° C., 2 min)]×30 cycles
The obtained hsPDE9A 1 cDNA fragment was incorporated in a TOPO-TA cloning vector (Invitrogen Corp.), and the base sequence was checked; and thereafter, the resultant was transfected in a pcDNA 3.1/myc His-tag vector (Invitrogen Corp.) to thereby make a human PDE9 expression vector for mammal cells. The human PDE9 expression vector for mammal cells was transfected with transient expression to an HEK293 cell by using a LIPOFETAMINE 2000 Reagent (Gibco). It was confirmed by Western blot method that the PDE9A expressed in the HEK293 cell, and then, the human PDE9A 1cDNA fragment was transfected in a pYNG vector (Katakura Industries Co., Ltd.) to thereby make an expression vector for insect cells. A supernatant of homogenized silk worm in which a large amount of PDE9 was expressed was purified by an equilibrated Ni column using a buffer A (20 mmol/L Tris-HCl, pH: 8.0, 1 mmol/L DTT, 10 mmol/L imidazole). After 1 hour of mixing of the supernatant and the Ni column, cleaning was carried out using a buffer B (20 mmol/L Tris-HCl, pH: 8.0, 1 mmol/L […]), and elution was carried out using a buffer C (20 mmol/L Tris-HCl, pH: 8.0, 1 mmol/L DTT, 100 mmol/L imidazole). An elution fraction was preparatively collected to thereby obtain a PDE9 enzyme solution.
2) Measurement of PDE9 Inhibitory Action
To 100 μL of a buffer D (40 mmol/L Tris-HCl, pH: 7.4, 10 mmol/L MgCl2, 1 mM DTT, 2 μM cGMP) solution containing [^3H]-cGMP ([…]/mL), 10 μL of a compound solution for evaluation (a solution in which a compound was dissolved in DMSO and diluted so that the DMSO concentration became 5%) and 90 μL of a solution prepared by diluting the PDE9 enzyme solution prepared in the above with a buffer E (40 mmol/L Tris-HCl, pH: 7.4, 10 mmol/L MgCl2, 1 mM DTT, 1 mmol/L EGTA) were added under ice cooling. The resultant mixed solution was incubated at 30° C. for 10 min, and thereafter heated for 2 min in boiled water to stop the enzyme reaction of the PDE9. Then, the resultant was returned to room temperature; 50 μL of 5′-Nucleotidase (Biomol GmbH, 10 units/mL) was added thereto; and the resultant was incubated at 30° C. for 10 min to thereby convert [^3H]-5′-GMP formed in the previous reaction to [^3H]-guanosine. 500 μL of an anion exchange resin (Bio-Rad AG1-X2 resin, mesh size: 200-400, H2O:resin=2:1) was added to the resultant reaction liquid, and allowed to stand for 10 min, and thereafter centrifuged (2,000 rpm, 10 min); and a supernatant in which the [^3H]-guanosine was present was transferred to a LumaPlate (PerkinElmer, Inc.), and the radioactivity was measured by a TopCount NXT microplate scintillation and luminescence counter (PerkinElmer, Inc.).
The inhibition percentage of the evaluation compound was calculated using the following expression, taking the radioactivity of a control containing no evaluation compound to be (A), the radioactivity of a blank containing no enzyme to be (B), and the radioactivity of the evaluation compound to be (C). Inhibition percentage=100−{[(C)−(B)]/[(A)−(B)]}×100(%)
The IC50 value for PDE9 of the evaluation compound was determined from inhibition percentage for various concentrations.

[2] = tested on: cGMP in the cerebrospinal fluid; test: Effect on rodent cerebrospinal fluid cGMP (rat); format: in vivo; settings: po, read-out: % CSF cGMP increase from vehicle control
Procedure: 3) Effect on Rodent Cerebrospinal Fluid cGMP
The test compound was administered to ICR male mice (Charles River Laboratories Japan, Inc.), Sprague-Dawley male rats (SD) (Charles River Laboratories Japan, Inc.) or Long-Evans male rats (LE) (Institute for Animal Reproduction), and the cerebrospinal fluid was then collected under pentobarbital anesthesia and stored at −20° C. cGMP in the cerebrospinal fluid was measured in accordance with the acetylation EIA procedure of cGMP EIA kit (GE Healthcare) or the non-acetylation procedure of cGMP EIA kit (Cayman) The result was an increase (C) in the amount of cGMP of the test compound-administered group (B) relative to the amount of cGMP of the vehicle-administered group (A), and was calculated using the following formula cGMP increase(C)=[(B)−(A)]/(A)×100(%)

[3] = tested on: cGMP in the hippocampus; test: Effect on rodent hippocampal cGMP; format: in vivo, rat; settings: Rattus norvegicus, po, 1 h, read-out: % hippocampal cGMP increase from vehicle control
Procedure: 4) Effect on Rodent Hippocampal cGMP
The test compound was administered to Sprague-Dawley male rats (Charles River Laboratories Japan, Inc.) or Long-Evans male rats (Institute for Animal Reproduction) and then the animals were sacrificed with microwave under pentobarbital anesthesia, and the hippocampus was extracted. After measuring the wet weight, the hippocampus was frozen with liquid nitrogen and stored at −80° C. In the measurement of cGMP in the hippocampus, a 0.5 M perchloric acid/1 mM EDTA solution was added at 5% (w/v) based on the wet weight, and the mixture was homogenized. After the homogenization, the homogenate was centrifuged (10000 rpm, 15 min), and the supernatant was collected. The collected supernatant was neutralized with a 2 M potassium bicarbonate solution and centrifuged (13000 rpm, 10 min). The cGMP concentration in the supernatant was measured in accordance with the non-acetylation EIA procedure of cGMP EIA kit (GE Healthcare). The result was an increase (C) in the amount of cGMP of the test compound-administered group (B) relative to the amount of cGMP of the vehicle-administered group (A), and was calculated using the following formula. cGMP increase(C)=[(B)−(A)]/(A)×100(%)

T1 sequence (O76083 whole entry): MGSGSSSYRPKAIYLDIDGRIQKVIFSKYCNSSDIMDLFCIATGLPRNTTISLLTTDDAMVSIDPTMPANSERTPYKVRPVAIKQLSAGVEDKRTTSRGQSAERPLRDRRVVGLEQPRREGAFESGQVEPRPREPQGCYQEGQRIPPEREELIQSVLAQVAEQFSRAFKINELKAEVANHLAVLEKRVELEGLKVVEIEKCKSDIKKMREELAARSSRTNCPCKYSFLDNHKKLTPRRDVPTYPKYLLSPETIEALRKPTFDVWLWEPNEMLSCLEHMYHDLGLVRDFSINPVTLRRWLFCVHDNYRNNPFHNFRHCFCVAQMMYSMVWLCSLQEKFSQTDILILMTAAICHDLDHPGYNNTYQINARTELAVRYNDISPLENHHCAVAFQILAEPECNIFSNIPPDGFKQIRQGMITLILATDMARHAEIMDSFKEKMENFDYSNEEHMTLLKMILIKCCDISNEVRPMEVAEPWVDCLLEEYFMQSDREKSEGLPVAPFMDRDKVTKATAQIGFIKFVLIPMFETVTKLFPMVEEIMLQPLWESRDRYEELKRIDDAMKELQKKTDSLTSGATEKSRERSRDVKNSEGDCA

Row | Structure (SMILES) | IC50 [1] [nM] | further results
1 | COc1ncc(C)c(-c2cc3[nH]c(=O)c4cnn([C@H]5CCOC5)c4c3cc2F)c1C [Example 53, (S)-8-fluoro-7-(2-methoxy-3,5-dimethylpyridin-4-yl)-1-(tetrahydrofuran-3-yl)-1H-pyrazolo[4,3-c]quinolin-4(5H)-one] | 10.1 | change in vivo at 10 mg/kg ([2]; Rattus norvegicus, 1 h): 202%; change in vivo at 10 mg/kg [3]: 27%
2 | Cc1cc(OC(F)F)nc(C)c1-c1ccc2c(c1)[nH]c(=O)c1cnn(C3CCOCC3)c12 [Example 18] | 9.3 | change in vivo at 3 mg/kg ([2]; Rattus norvegicus, 1 h): 123%
3 | CCOc1cc(C)c(-c2ccc3c(c2)[nH]c(=O)c2cnn([C@H]4CCOC4)c23)c(C)n1 [Example 62, (S)-7-(6-ethoxy-2,4-dimethylpyridin-3-yl)-1-(tetrahydrofuran-3-yl)-1H-pyrazolo[4,3-c]quinolin-4(5H)-one] | 11.1 | change in vivo at 3 mg/kg ([2]; Rattus norvegicus, 1 h): 155%
4 | COc1nccc(C)c1-c1ccc2c(c1)[nH]c(=O)c1cnn(C3CCOCC3)c12 [Example 6, 7-(2-methoxy-4-methylpyridin-3-yl)-1-(tetrahydro-2H-pyran-4-yl)-1H-pyrazolo[4,3-c]quinolin-4(5H)-one] | 6.86 | change in vivo at 10 mg/kg ([2]; Rattus norvegicus, 1 h): 120%
5 | COc1nccc(C)c1-c1ccc2c(c1)[nH]c(=O)c1cnn(C3CCOC3)c12 (single isomer, unassigned) [32 (−)] | 12.2 | change in vivo at 10 mg/kg ([2]; rat(SD), 10 mg/kg p.o., sampling time 1 hr): 72%
6 | COc1cc(C)c(-c2ccc3c(c2)[nH]c(=O)c2cnn(C4CCOCC4)c23)c(CF)n1 [Example 24] | 18.7 | change in vivo at 10 mg/kg ([2]; Rattus norvegicus, 1 h): 149%
7 | COc1ncc(F)c(C)c1-c1ccc2c(c1)[nH]c(=O)c1cnn(C3CCOCC3)c12 [Example 12] | 19.7 | change in vivo at 3 mg/kg ([2]; Rattus norvegicus, 1 h): 91%
8 | COc1cc(C)c(-c2ccc3c(c2)[nH]c(=O)c2cnn(C4CCCOC4)c23)c(CF)n1 (single isomer, unassigned) [38 (+)] | 17.1 | 
9 | COc1nc(C)cc(C)c1-c1ccc2c(c1)[nH]c(=O)c1cnn(C3CCCOC3)c12 (single isomer, unassigned; (+)) [34 (+), (+)-7-(2-methoxy-4,6-dimethylpyridin-3-yl)-1-(tetrahydro-2H-pyran-3-yl)-1H-pyrazolo[4,3-c]quinolin-4(5H)-one] | 3.88 | 
10 | Cc1cc(Cl)c(-c2ccc3c(c2)[nH]c(=O)c2cnn(C4CCOCC4)c23)c(C)n1 [Example 9] | 21.7 | 
11 | COc1nc(C)c(-c2ccc3c(c2)[nH]c(=O)c2cnn(C4CCOCC4)c23)c(OC)n1 [Example 14] | 21.2 | 
12 | COc1nc(C)cc(C)c1-c1ccc2c(c1)[nH]c(=O)c1cnn([C@@H]3COC[C@H]3OC)c12 (racemic) [Example 60, 7-(2-methoxy-4,6-dimethylpyridin-3-yl)-1-[(3RS,4SR)-4-methoxytetrahydrofuran-3-yl]-1H-pyrazolo[4,3-c]quinolin-4(5H)-one] | 31.1 | 
13 | COCc1cc(C)c(-c2ccc3c(c2)[nH]c(=O)c2cnn(C4CCOCC4)c23)c(C)c1 [Example 7] | 9.2 | 
14 | COc1ncc(C)c(-c2ccc3c(c2)[nH]c(=O)c2cnn([C@H]4CCOC4)c23)c1C [25 (−)S] | 9.43 | 
15 | COc1nc(CF)cc(C)c1-c1ccc2c(c1)[nH]c(=O)c1cnn(C3CCCOC3)c12 (single isomer, unassigned) [35 (−)] | 2.96 | 
16 | CCc1c(OC)ncc(C)c1-c1ccc2c(c1)[nH]c(=O)c1cnn([C@H]3CCOC3)c12 [Example 56, (S)-7-(3-ethyl-2-methoxy-5-methylpyridin-4-yl)-1-(tetrahydrofuran-3-yl)-1H-pyrazolo[4,3-c]quinolin-4(5H)-one] | 10.1 | 
17 | Cc1cc(C(F)F)nc(C)c1-c1ccc2c(c1)[nH]c(=O)c1cnn(C3CCOCC3)c12 [Example 16] | 6.32 | 
18 | COc1nc(C)cc(C)c1-c1ccc2c(c1)[nH]c(=O)c1cnn(C3CCOC3)c12 (single isomer, unassigned; (-)) [28 (−), (−)-7-(2-methoxy-4,6-dimethylpyridin-3-yl)-1-(tetrahydrofuran-3-yl)-1H-pyrazolo[4,3-c]quinolin-4(5H)-one] | 8.36 | change in vivo at 3 mg/kg ([2]; Rattus norvegicus, 1 h): 257%
19 | Cc1cc(CF)nc(C)c1-c1ccc2c(c1)[nH]c(=O)c1cnn(C3CCOCC3)c12 [Example 19] | 13 | 
20 | COc1ncc(C)c(-c2ccc3c(c2)[nH]c(=O)c2cnn([C@@H]4CCOC4)c23)c1C [25 (+)R] | 41 | 
21 | Cc1cccc(C)c1-c1ccc2c(c1)[nH]c(=O)c1cnn(C3CCOC3)c12 (single isomer, unassigned; (+)) [33 (+), (+)-7-(2,6-dimethylphenyl)-1-(tetrahydrofuran-3-yl)-1H-pyrazolo[4,3-c]quinolin-4(5H)-one] | 113 | 
22 | Cc1cc(F)nc(C)c1-c1ccc2c(c1)[nH]c(=O)c1cnn(C3CCOCC3)c12 [Example 8] | 25.2 | 
23 | Cc1cnc(OC(F)F)c(C)c1-c1ccc2c(c1)[nH]c(=O)c1cnn([C@H]3CCOC3)c12 [Example 49] | 12.2 | 
24 | COc1ncc(C)c(-c2ccc3c(c2)[nH]c(=O)c2cnn([C@H]4CCOC4)c23)c1C [26 S] |  | change in vivo at 10 mg/kg ([2]; Rattus norvegicus, 1 h): 274%; change in vivo at 10 mg/kg [3]: 58%
25 | CCOc1nccc(C)c1-c1ccc2c(c1)[nH]c(=O)c1cnn(C3CCOCC3)c12 [Example 23, 7-(2-ethoxy-4-methylpyridin-3-yl)-1-(tetrahydro-2H-pyran-4-yl)-1H-pyrazolo[4,3-c]quinolin-4(5H)-one] | 9.51 | 
